# Data published in US9212182B2, “Bicyclic sulfonamide compounds as sodium channel inhibitors” (AMGEN INC., priority 2013, dated 2015).
# Like-named read-outs stand apart in the source and are kept apart here.
# Target: Nav 1.7 (Homo sapiens (Human), UniProt Q15858)
# Experiment: in-vitro Nav 1.7 PX (IC50)
# Type: cell-based
# Chain of Nav 1.7 (Q15858 whole entry): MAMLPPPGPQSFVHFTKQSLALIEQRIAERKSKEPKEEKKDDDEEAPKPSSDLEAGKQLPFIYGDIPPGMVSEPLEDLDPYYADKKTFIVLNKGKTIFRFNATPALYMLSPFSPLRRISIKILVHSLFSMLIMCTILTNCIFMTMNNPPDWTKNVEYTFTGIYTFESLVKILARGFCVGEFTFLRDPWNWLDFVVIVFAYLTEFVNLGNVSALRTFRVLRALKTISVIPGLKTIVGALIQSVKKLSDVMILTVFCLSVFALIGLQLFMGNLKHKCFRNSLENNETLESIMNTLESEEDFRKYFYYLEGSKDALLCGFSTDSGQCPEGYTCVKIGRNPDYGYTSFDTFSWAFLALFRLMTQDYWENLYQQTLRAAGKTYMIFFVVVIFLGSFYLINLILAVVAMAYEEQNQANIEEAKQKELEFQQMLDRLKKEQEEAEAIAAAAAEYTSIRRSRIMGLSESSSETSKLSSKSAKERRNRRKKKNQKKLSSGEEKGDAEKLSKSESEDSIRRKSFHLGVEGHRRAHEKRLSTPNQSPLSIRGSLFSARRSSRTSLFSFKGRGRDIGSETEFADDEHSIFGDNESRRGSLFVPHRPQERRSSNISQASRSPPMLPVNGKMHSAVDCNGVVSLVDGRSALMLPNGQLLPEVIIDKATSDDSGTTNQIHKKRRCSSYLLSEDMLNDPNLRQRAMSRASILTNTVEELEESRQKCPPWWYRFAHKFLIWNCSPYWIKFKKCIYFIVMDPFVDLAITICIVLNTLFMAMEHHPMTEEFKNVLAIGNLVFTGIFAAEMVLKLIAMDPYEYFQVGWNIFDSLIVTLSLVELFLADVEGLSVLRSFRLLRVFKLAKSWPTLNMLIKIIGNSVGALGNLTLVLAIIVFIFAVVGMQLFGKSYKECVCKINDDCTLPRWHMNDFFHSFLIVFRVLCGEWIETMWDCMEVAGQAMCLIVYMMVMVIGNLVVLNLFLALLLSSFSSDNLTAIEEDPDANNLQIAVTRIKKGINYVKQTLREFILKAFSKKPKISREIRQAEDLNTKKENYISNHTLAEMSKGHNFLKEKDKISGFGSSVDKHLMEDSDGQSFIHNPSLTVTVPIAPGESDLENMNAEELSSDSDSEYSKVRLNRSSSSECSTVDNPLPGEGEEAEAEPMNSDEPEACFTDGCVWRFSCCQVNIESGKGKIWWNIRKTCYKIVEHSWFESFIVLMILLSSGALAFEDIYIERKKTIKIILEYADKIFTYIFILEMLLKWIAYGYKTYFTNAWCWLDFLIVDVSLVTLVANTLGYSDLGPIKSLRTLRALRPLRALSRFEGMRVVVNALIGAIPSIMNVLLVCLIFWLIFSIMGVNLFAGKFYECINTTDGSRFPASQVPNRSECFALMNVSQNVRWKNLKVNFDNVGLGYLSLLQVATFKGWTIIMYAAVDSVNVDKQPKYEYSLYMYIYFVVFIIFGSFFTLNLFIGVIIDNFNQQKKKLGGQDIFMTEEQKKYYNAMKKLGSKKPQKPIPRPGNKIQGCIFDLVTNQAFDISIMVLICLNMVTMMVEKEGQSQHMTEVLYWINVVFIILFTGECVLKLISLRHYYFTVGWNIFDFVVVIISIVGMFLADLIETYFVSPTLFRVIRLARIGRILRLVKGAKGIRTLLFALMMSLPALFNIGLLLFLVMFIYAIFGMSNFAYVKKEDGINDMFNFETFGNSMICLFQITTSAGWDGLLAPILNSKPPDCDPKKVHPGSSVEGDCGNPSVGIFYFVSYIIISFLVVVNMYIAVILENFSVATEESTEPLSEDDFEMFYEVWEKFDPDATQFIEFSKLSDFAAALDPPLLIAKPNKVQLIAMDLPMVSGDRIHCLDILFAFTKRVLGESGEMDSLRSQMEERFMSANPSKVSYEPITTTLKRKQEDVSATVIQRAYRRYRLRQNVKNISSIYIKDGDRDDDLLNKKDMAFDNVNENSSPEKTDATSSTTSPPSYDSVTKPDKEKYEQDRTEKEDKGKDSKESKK
SMILES,IC50 (in-vitro Nav 1.7 PX data) [nM],also measured
"COc1nc(Oc2cc(F)ccc2F)c(Cl)cc1-n1c(=O)ccc2cc(S(=O)(=O)Nc3ccon3)ccc21 [Example 1225, 1-(5-chloro-6-(2,5-difluorophenoxy)-2-methoxy-3-pyridinyl)-N-3-isoxazolyl-2-oxo-1,2-dihydro-6-quinolinesulfonamide]",–,IC50: 846 nM
"COc1cc(-c2ccc(F)c(F)c2)c(C)cc1-n1c(=O)ccc2cc(S(=O)(=O)Nc3ncccn3)ccc21 [Example 958, 1-(3′,4′-difluoro-5-methoxy-2-methyl-4-biphenylyl)-2-oxo-N-2-pyrimidinyl-1,2-dihydro-6-quinolinesulfonamide]",28,–
"COc1cc(-c2ccccc2F)c(F)cc1-n1c(=O)ccc2cc(S(=O)(=O)Nc3ccon3)ccc21 [Example 951, 1-(2,2′-difluoro-5-methoxy-4-biphenylyl)-N-3-isoxazolyl-2-oxo-1,2-dihydro-6-quinolinesulfonamide]",90,–
"COc1cc(C#CC2(O)CCCC2)c(F)cc1-n1c(=O)ccc2cc(S(=O)(=O)Nc3ccon3)ccc21 (atropisomer, axis not shown; (P)) [Example 1233, (P)-1-(5-fluoro-4-((1-hydroxycyclopentyl)ethynyl)-2-methoxyphenyl)-N-3-isoxazolyl-2-oxo-1,2-dihydro-6-quinolinesulfonamide]",–,IC50: 631 nM
"COc1cc(-c2cccc(C)c2)ccc1-n1c(=O)ccc2cc(S(=O)(=O)Nc3ncccn3)ccc21 [Example 1117, 1-(3-methoxy-3′-methyl-4-biphenylyl)-2-oxo-N-2-pyrimidinyl-1,2-dihydro-6-quinolinesulfonamide]",59,–
"COc1nc(O[C@H](C)C(F)(F)C(F)F)c(Cl)cc1-n1c(=O)ccc2cc(S(=O)(=O)Nc3ccon3)ccc21 [Example 1212, 1-(5-chloro-2-methoxy-6-(((1R)-2,2,3,3-tetrafluoro-1-methylpropyl)oxy)-3-pyridinyl)-N-3-isoxazolyl-2-oxo-1,2-dihydro-6-quinolinesulfonamide, 1-(5-chloro-2-methoxy-6-(((1S)-2,2,3,3-tetrafluoro-1-methylpropyl)oxy)-3-pyridinyl)-N-3-isoxazolyl-2-oxo-1,2-dihydro-6-quinolinesulfonamide]",–,IC50: 136 nM
"COc1cc(-c2cnc(OC)c(Cl)c2)c(F)cc1-n1c(=O)ccc2cc(S(=O)(=O)Nc3ccc(F)cn3)ccc21 (atropisomer, axis not shown; (P)) [Example 1161, (P)-1-(4-(5-chloro-6-methoxy-3-pyridinyl)-5-fluoro-2-methoxyphenyl)-N-(5-fluoro-2-pyridinyl)-2-oxo-1,2-dihydro-6-quinolinesulfonamide]",–,"IC50 (in-vitro Nav 1.7 PX data, Table 4): 20 nM"
"COc1cc(-c2cc(F)cc(C#N)c2)ccc1-n1c(=O)ccc2cc(S(=O)(=O)Nc3ccon3)ccc21 [Example 1021, 1-(3′-cyano-5′-fluoro-3-methoxy-4-biphenylyl)-N-3-isoxazolyl-2-oxo-1,2-dihydro-6-quinolinesulfonamide]",105,–
"COc1cc(-c2cccc(C3CC3)c2)c(F)cc1-n1c(=O)ccc2cc(S(=O)(=O)Nc3ccon3)ccc21 [Example 790, 1-(3′-cyclopropyl-2-fluoro-5-methoxy-4-biphenylyl)-N-3-isoxazolyl-2-oxo-1,2-dihydro-6-quinolinesulfonamide]",5,–
"COc1cc(-c2ccc(F)c(C)c2)c(F)cc1-n1c(=O)cnc2cc(S(=O)(=O)Nc3ccon3)ccc21 [Example 1194, 1-(2,4′-difluoro-5-methoxy-3′-methyl-4-biphenylyl)-N-3-isoxazolyl-2-oxo-1,2-dihydro-6-quinoxalinesulfonamide]",–,IC50: 56 nM
"COc1cc(-c2ccc(Cl)cc2)c(F)cc1-n1c(=O)ccc2cc(S(=O)(=O)Nc3cc(C)ncn3)ccc21 [Example 752, 1-(4′-chloro-2-fluoro-5-methoxy-4-biphenylyl)-N-(6-methyl-4-pyrimidinyl)-2-oxo-1,2-dihydro-6-quinolinesulfonamide]",20,–
"COc1ccc(-c2cc(F)cc(Cl)c2)cc1-n1c(=O)ccc2cc(S(=O)(=O)Nc3ccncn3)ccc21 (atropisomer, axis not shown; (P)) [Example 611, (P)-1-(3′-chloro-5′-fluoro-4-methoxy-3-biphenylyl)-2-oxo-N-4-pyrimidinyl-1,2-dihydro-6-quinolinesulfonamide]",29,–
"COc1cc(Cl)cc(-c2cc(OC)c(-n3c(=O)ccc4cc(S(=O)(=O)Nc5ccon5)ccc43)cc2F)c1 (atropisomer, axis not shown; (M)) [Example 502, (M)-1-(3′-chloro-2-fluoro-5,5′-dimethoxy-4-biphenylyl)-N-3-isoxazolyl-2-oxo-1,2-dihydro-6-quinolinesulfonamide]",–,IC50 (in-vitro PatchXpress (PX)): 1230 nM
"COc1nc(OCc2ccc(F)cc2)c(Cl)cc1-n1c(=O)ccc2cc(S(=O)(=O)Nc3ccon3)ccc21 [Example 1214, 1-(5-chloro-6-((4-fluorobenzyl)oxy)-2-methoxy-3-pyridinyl)-N-3-isoxazolyl-2-oxo-1,2-dihydro-6-quinolinesulfonamide]",–,IC50: 111 nM
"COc1cc(C2CCCCC2)c(F)cc1-n1c(=O)ccc2cc(S(=O)(=O)Nc3ccon3)ccc21 [Example 1077, 1-(4-cyclohexyl-5-fluoro-2-methoxyphenyl)-N-3-isoxazolyl-2-oxo-1,2-dihydro-6-quinolinesulfonamide]",38,–
"COc1cc(-c2ccc(C(F)(F)F)cc2)c(F)cc1-n1c(=O)ccc2cc(S(=O)(=O)Nc3ncc(F)cn3)ccc21 [Example 796, 1-(2-fluoro-5-methoxy-4′-(trifluoromethyl)-4-biphenylyl)-N-(5-fluoro-2-pyrimidinyl)-2-oxo-1,2-dihydro-6-quinolinesulfonamide]",33,–
"COc1cccc(-c2ccc(OC)c(-n3c(=O)ccc4cc(S(=O)(=O)Nc5ccon5)ccc43)c2)c1 [Example 847, 1-(3′,4-dimethoxy-3-biphenylyl)-N-3-isoxazolyl-2-oxo-1,2-dihydro-6-quinolinesulfonamide]",403,–
"O=c1ccc2cc(S(=O)(=O)Nc3ccon3)ccc2n1-c1cc(F)c(Br)cc1OC1CCNC1 (stereo not drawn) [Example 625, 1-(4-bromo-5-fluoro-2-(PYRROLIDIN-3-YLOXY)phenyl)-N-(isoxazol-3-yl)-2-oxo-1,2-dihydroquinoline-6-sulfonamide]",–,IC50 (in-vitro Nav 1.7 PX data (PatchXpress)): 5610 nM
"COc1ccc(-c2ccc(OC)c(-n3c(=O)ccc4cc(S(=O)(=O)Nc5ccon5)ccc43)c2)cc1Cl [Example 884, 1-(3′-chloro-4,4′-dimethoxy-3-biphenylyl)-N-3-isoxazolyl-2-oxo-1,2-dihydro-6-quinolinesulfonamide]",35,–
"COc1cc(-c2ccncc2)c(F)cc1-n1c(=O)ccc2cc(S(=O)(=O)Nc3ccon3)ccc21 [Example 505, 1-(5-fluoro-2-methoxy-4-(4-pyridinyl)phenyl)-N-3-isoxazolyl-2-oxo-1,2-dihydro-6-quinolinesulfonamide]",–,IC50 (in-vitro PatchXpress (PX)): 1800 nM
"COc1cc(-c2ccc(C)c(F)c2)c(F)cc1-n1c(=O)ccc2cc(S(=O)(=O)Nc3ncco3)ccc21 [Example 1125, 1-(2,3′-difluoro-5-methoxy-4′-methyl-4-biphenylyl)-N-1,3-oxazol-2-yl-2-oxo-1,2-dihydro-6-quinolinesulfonamide]",81,–
"COc1cc(-c2cc(C)ccc2Cl)c(F)cc1-n1c(=O)ccc2cc(S(=O)(=O)Nc3ccon3)ccc21 [Example 716, 1-(2′-chloro-2-fluoro-5-methoxy-5′-methyl-4-biphenylyl)-N-3-isoxazolyl-2-oxo-1,2-dihydro-6-quinolinesulfonamide]",6,–
"COc1ccc(-c2cc(F)cc(Cl)c2)cc1-n1c(=O)ccc2cc(S(=O)(=O)Nc3ccncn3)ccc21 (atropisomer, axis not shown; (M)) [Example 612, (M)-1-(3′-chloro-5′-fluoro-4-methoxy-3-biphenylyl)-2-oxo-N-4-pyrimidinyl-1,2-dihydro-6-quinolinesulfonamide]",355,–
"COc1nc(-c2ccc(Cl)c(C)c2)c(Cl)cc1-n1c(=O)ccc2cc(S(=O)(=O)Nc3ccon3)ccc21 [Example 1085, 1-(5-chloro-6-(4-chloro-3-methylphenyl)-2-methoxy-3-pyridinyl)-N-3-isoxazolyl-2-oxo-1,2-dihydro-6-quinolinesulfonamide]",3440,–
"COc1cc(-c2cccc(F)c2)c(C)cc1-n1c(=O)cc(C)c2cc(S(=O)(=O)Nc3ccon3)ccc21 (atropisomer, axis not shown; (P)) [Example 568, (P)-1-(3′-fluoro-5-methoxy-2-methyl-4-biphenylyl)-N-3-isoxazolyl-4-methyl-2-oxo-1,2-dihydro-6-quinolinesulfonamide]",–,IC50: 92 nM
"COc1cc(F)cc(-c2cc(OC)c(-n3c(=O)ccc4cc(S(=O)(=O)Nc5ncccn5)ccc43)cc2C)c1 [Example 957, 1-(3′-fluoro-5,5′-dimethoxy-2-methyl-4-biphenylyl)-2-oxo-N-2-pyrimidinyl-1,2-dihydro-6-quinolinesulfonamide]",23,–
"COc1cc(-c2cccc(OC)c2C)c(F)cc1-n1c(=O)ccc2cc(S(=O)(=O)Nc3ccon3)ccc21 [Example 735, 1-(2-fluoro-3′,5-dimethoxy-2′-methyl-4-biphenylyl)-N-3-isoxazolyl-2-oxo-1,2-dihydro-6-quinolinesulfonamide]",54,–
"COc1cc(C#CC2CCCC2)c(F)cc1-n1c(=O)ccc2cc(S(=O)(=O)Nc3ncc(F)cn3)ccc21 [Example 1135, 1-(4-(cyclopentylethynyl)-5-fluoro-2-methoxyphenyl)-N-(5-fluoro-2-pyrimidinyl)-2-oxo-1,2-dihydro-6-quinolinesulfonamide]",114,–
"COc1cc(-c2cccc(C(F)(F)F)c2)ccc1-n1c(=O)ccc2cc(S(=O)(=O)Nc3cccnn3)ccc21 (atropisomer, axis not shown; (P)) [Example 369, (P)-1-(3-methoxy-3′-(trifluoromethyl)-4-biphenylyl)-2-oxo-N-3-pyridazinyl-1,2-dihydro-6-quinolinesulfonamide]",–,IC50 (in-vitro PatchXpress (PX)): 16 nM
"COc1cc(-c2ccc(C)c(Cl)c2)ccc1-n1c(=O)ccc2cc(S(=O)(=O)Nc3ccon3)ccc21 (atropisomer, axis not shown; (M)) [Example 588, (M)-1-(3′-chloro-3-methoxy-4′-methyl-4-biphenylyl)-N-3-isoxazolyl-2-oxo-1,2-dihydro-6-quinolinesulfonamide]",–,IC50: 1020 nM
